Data published in patent US12389911B2, “Benzimidazole compound or salt thereof, agricultural and horticultural insecticidal and acaricidal agent containing said compound, and method for using same” (NIHON NOHYAKU CO., LTD., priority 2019, dated 2025).

Columns and labels:
[1] = system: Green peach aphid (Myzus persicae); assay: Test for control efficacy on green peach aphid (foliar application on Chinese cabbage); format: in vivo; conditions: 500 ppm, foliar application to potted Chinese cabbage, 6 days after application
Text: Test for Control Efficacy on Green Peach Aphid (Myzus persicae) Chinese cabbage plants were planted in plastic pots (diameter: 8 cm, height: 8 cm), green peach aphids were propagated on the plants, and the number of surviving Green peach aphids in each pot was counted. The benzimidazole compounds represented by the general formula (1) of the present invention or salts thereof were separately dispersed in water and diluted to 500 ppm. The agrochemical dispersions were applied to the foliage of the potted Chinese cabbage plants. After the plants were air-dried, the pots were kept in a greenhouse. At 6 days after the foliar application, the number of surviving Green peach aphids on the Chinese cabbage plant in each pot was counted, the control rate was calculated according to the formula shown below, and the control efficacy was evaluated according to the criteria shown below. Control rate=100−{(T×Ca)/(Ta×C)}×100 [Expression 1] Ta: the number of survivors before the foliar application in a treatment plot T: the number of survivors after the foliar application in a treatment plot Ca: the number of survivors before the foliar application in a non-treatment plot C: the number of survivors after the foliar application in a non-treatment plot Criteria • A: the control rate is 100%. • B: the control rate is 90 to 99%. • C: the control rate is 80 to 89%. • D: the control rate is 50 to 79%.

[2] = system: Two-spotted spider mite (Tetranychus urticae); assay: Acaricidal action on two-spotted spider mite (kidney bean leaf disk spray); format: in vivo; conditions: 500 ppm, adult females, 25° C., two days after treatment
Method: Acaricidal Action on Two-Spotted Spider Mite (Tetranychus urticae)
Leaf disk having a diameter of 2 cm was prepared by leaves of kidney bean, and the leaf disk was placed on the wetted filter paper. Adult hens of two-spotted spider mite were inoculated on the wetted filter paper, and then 50 ml of an agrochemical dispersion, prepared by diluting a formulation containing the benzimidazole compound represented by the general formula (1) of the present invention or salt thereof as an active ingredient to adjust each of the concentrations to 500 ppm, was sprayed on turntable uniformly. After the spraying, it was allowed to stand in a thermostatic chamber at 25° C. Two days after the treatment of an agrochemical dispersion, the dead mites were counted, the corrected mortality rate was calculated according to the formula shown below, and the acaricidal efficacy was evaluated according to the criteria of Test Example 2. This test was conducted in duplicate using 10 adult hens of two-spotted spider per plot. Corrected mortality(%)=(Number of dead mites in a non-treatment plot−Number of dead mites in a treatment plot)/(Number of dead mites in a non-treatment plot)×100 [Expression 4]

Structure (SMILES)	control efficacy (control rate), activity level [1]	acaricidal efficacy (corrected mortality rate), activity level [2]
CCCCCCCCc1cn(-c2nc3ccccc3n2S(=O)(=O)CC)cn1 [Compound 1-4]	D or higher	D or higher
CCCCCC/C=C\c1cn(-c2nc3ccccc3n2S(=O)(=O)CC)cn1 [Compound 1-6]	D or higher	D or higher
CCS(=O)(=O)n1c(-n2cnc(Cc3ccccc3)c2)nc2ccccc21 [Compound 1-8]	D or higher	D or higher
CCS(=O)(=O)n1c(-n2cnc(CCc3ccc(Cl)cc3)c2)nc2ccccc21 [Compound 1-12]	D or higher	D or higher
CCS(=O)(=O)n1c(-n2cnc(CCc3ccc(Cl)cc3Cl)c2)nc2ccccc21 [Compound 1-13]	D or higher	D or higher
CCS(=O)(=O)n1c(-n2cnc(C(F)(F)C(F)(F)C(F)(F)C(F)(F)F)c2)nc2ccccc21 [Compound 1-27]	D or higher	D or higher
CCS(=O)(=O)n1c(-n2cnc(C(=O)Nc3ccccc3)c2)nc2ccccc21 [Compound 1-30]	D or higher	–
CCS(=O)(=O)n1c(-n2cnc(COCC(F)(F)C(F)(F)C(F)(F)F)c2)nc2ccccc21 [Compound 1-32]	D or higher	D or higher
CCS(=O)(=O)n1c(-n2cc(C#Cc3ccc(C(F)(F)F)cc3)cn2)nc2ccccc21 [Compound 2-8]	D or higher	D or higher
CCS(=O)(=O)n1c(-n2cc(C(F)(C(F)(F)F)C(F)(F)F)cn2)nc2ccccc21 [Compound 2-10]	D or higher	D or higher
CCS(=O)(=O)n1c(-n2cc(C(=O)OC(C)(C)C)cn2)nc2ccccc21 [Compound 2-11]	D or higher	D or higher
CCS(=O)(=O)n1c(-n2cc(Cl)c(C(F)(F)F)n2)nc2ccccc21 [Compound 2-13]	D or higher	D or higher
CS(=O)(=O)n1c(-n2cc(I)c(C(F)(F)F)n2)nc2ccccc21 [Compound 2-15]	D or higher	D or higher
CCc1cn(-c2nc3ccccc3n2S(=O)(=O)CC)nc1C(F)(F)F [Compound 2-19]	D or higher	D or higher
CCS(=O)(=O)n1c(-n2cc(C3CC3)c(C(F)(F)F)n2)nc2ccccc21 [Compound 2-20]	D or higher	D or higher
CCS(=O)(=O)n1c(-n2cc(/C=C/C(=O)OC(C)(C)C)c(C(F)(F)F)n2)nc2ccccc21 [Compound 2-24]	D or higher	D or higher
CCOC(=O)c1cn(-c2nc3ccccc3n2S(=O)(=O)CC)nc1C(F)(F)F [Compound 2-26]	D or higher	D or higher
CCS(=O)(=O)n1c(-n2cc(C(=O)OCC(C)(C)C)c(C(F)(F)F)n2)nc2ccccc21 [Compound 2-28]	D or higher	D or higher
CCS(=O)(=O)n1c(-n2cc(C#CCOC)c(C(F)(F)F)n2)nc2ccccc21 [Compound 2-128]	–	D or higher
CCS(=O)(=O)n1c(-n2cc(C#CC(C)(C)OC)c(C(F)(F)F)n2)nc2ccccc21 [Compound 2-129]	–	D or higher

Structure (SMILES)	control efficacy (control rate), activity level [1]	acaricidal efficacy (corrected mortality rate), activity level [2]
CCS(=O)(=O)n1c(-n2cc(/C=C/C(=O)OC(C)(C)C)c(C(=O)OC(C)(C)C)n2)nc2ccccc21 [Compound 2-130]	–	D or higher
CCS(=O)(=O)n1c(-n2cc(C(=O)CC(C)(C)C)c(CC(C)(C)C)n2)nc2ccccc21 [Compound 2-131]	–	D or higher
CCS(=O)(=O)n1c(-n2cc(C#CCOC(=O)C(C)(C)C)c(C(F)(F)F)n2)nc2ccccc21 [Compound 2-132]	–	D or higher
CCS(=O)(=O)n1c(-n2cc(C#CC(C)(C)C)c(C(=O)OC(C)(C)C)n2)nc2ccccc21 [Compound 2-133]	–	D or higher
CCS(=O)(=O)n1c(-n2cc(CCCOC(=O)C(C)(C)C)c(C(F)(F)F)n2)nc2ccccc21 [Compound 2-134]	–	D or higher
CCS(=O)(=O)n1c(-n2cc(CCC(=O)OC(C)(C)C)c(C(=O)OC(C)(C)C)n2)nc2ccccc21 [Compound 2-135]	–	D or higher
CCS(=O)(=O)n1c(-n2cc(Br)c(OC(F)(F)C(=O)N(C)C)n2)nc2ccccc21 [Compound 2-136]	–	D or higher
CCS(=O)(=O)n1c(-n2cc(CCC(C)(C)C)c(C(=O)OC(C)(C)C)n2)nc2ccccc21 [Compound 2-137]	–	D or higher
CCS(=O)(=O)n1c(-n2cc(C#CCOCC(F)(F)F)c(C(F)(F)F)n2)nc2ccccc21 [Compound 2-138]	–	D or higher
CCS(=O)(=O)n1c(-n2cc(C(=O)OC(C)(C)C)c(OC(F)F)n2)nc2ccccc21 [Compound 2-139]	–	D or higher
CCS(=O)(=O)n1c(-n2cc(SCC(F)(F)C(F)(F)F)cn2)nc2ccccc21 [Compound 2-141]	–	D or higher
CCS(=O)(=O)n1c(-n2cc(C(=O)CC(C)C)c(CC(C)C)n2)nc2ccccc21 [Compound 2-142]	–	D or higher
CCOC(=O)/C=C/c1nn(-c2nc3ccccc3n2S(=O)(=O)CC)cc1C(=O)OCC [Compound 2-143]	–	D or higher
CCS(=O)(=O)n1c(-n2cc(C(=O)OC(C)(C)C)c(/C=C/C(=O)OC(C)(C)C)n2)nc2ccccc21 [Compound 2-144]	–	D or higher
CCS(=O)(=O)n1c(-n2cc(C(=O)OC(C)(C)C)c(C#CC(C)(C)C)n2)nc2ccccc21 [Compound 2-145]	–	D or higher
CCS(=O)(=O)n1c(-n2cnc(C(F)(F)C(F)(F)F)n2)nc2ccccc21 [Compound 3-2]	–	D or higher
CCS(=O)(=O)n1c(-n2cnc(SC)n2)nc2ccccc21 [Compound 3-4]	–	D or higher
CCS(=O)(=O)n1c(-n2ccc(C(=O)OC(C)(C)C)c2)nc2ccccc21 [Compound 7-1]	–	D or higher
CCS(=O)(=O)n1c(-n2cc(C(=O)OC)c(C(=O)OC)c2)nc2ccccc21 [Compound 7-6]	–	D or higher
